Consider 18 compounds from ChEMBL document CHEMBL1201862, “PubChem BioAssay data set” (2004).

Molecules are shown by their SMILES. Where “and” joins values, the source holds several entries; their conditions need not be identical. Identical values can stand only once.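 Tested at 5 concentrations; 48 h exposure; 96-well plates; endpoints linearly interpolated, else capped at highest concentration. GI50 is the concentration that inhibits growth by half.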 Calls of active or inactive are those of the source. Cut-off read from the data, not from the text of the source: active = GI50 up to about 1.1 µM and inactive = higher.

Some test systems named below: KM-20L2; HOP-18; DLD-1; M19-MEL; SNB-78; DMS-114; XF498; DMS-273; RXF 631.
Assay in all cases: NCI anticancer screen, dose series, 48 h

Turning to `CC1=C2C(=O)O[C@@H](c3ccoc3)[C@]2(C)CCC1` [FRAXINELLONE], the GI50 in the experiment on KM-20L2, in the experiment with HOP-18, in the experiment on DLD-1, in the experiment with M19-MEL, in the experiment with SNB-78 and in the experiment with DMS-114 was > 100 µM (inactive) throughout. Also, in the experiment on XF498, the GI50 is > 100 µM (inactive).

Take `CC(=O)OCC1OC(N2C(=O)C(=O)c3cc(C)ccc32)C(OC(C)=O)C(OC(C)=O)C1OC(C)=O` (stereo not drawn): the GI50 in the experiment on KM-20L2 is 60.5 µM (inactive); in the experiment with HOP-18, > 100 µM (inactive); in the experiment on DLD-1, 56 µM (inactive); in the experiment on M19-MEL, 50.7 µM (inactive); with DMS-273 it was > 100 µM (inactive); in the experiment on SNB-78, > 100 µM (inactive). The GI50 with DMS-114 was > 100 µM (inactive).

With `COC(=O)[C@]1(C)CCC[C@]2(C)C3CC4OOC3(C=C4C(C)C)CCC21` (stereo partly drawn), the GI50 with KM-20L2 was 17.9 µM (inactive); with DLD-1, 12.7 µM (inactive); with DMS-273, 18.5 µM (inactive); in the experiment with SNB-78, 16.5 µM (inactive); with DMS-114, 13.7 µM (inactive).

On to `COc1cc(C2c3cc4c(cc3[C@@H](Nc3ccc(F)cc3)C3COC(=O)[C@H]23)OCO4)cc(OC)c1O` (stereo partly drawn), for which the GI50 in the experiment on KM-20L2 is 2.08 µM (inactive); in the experiment on HOP-18 it was 10.6 µM (inactive); in the experiment with DLD-1, 3.79 µM (inactive); in the experiment with M19-MEL, 4.21 µM (inactive); with DMS-273, 0.891 µM (active); in the experiment with SNB-78, 8.65 µM (inactive). Also, the figures for the GI50 in the experiment with DMS-114 and in the experiment with XF498 were 2.64 µM (inactive) and 2.95 µM (inactive), respectively.

For `C/C(=N\OCC(O)CNC(C)C)c1ccc2c(c1)NC(=O)CS2` (stereo not drawn), the GI50 with KM-20L2, in the experiment with HOP-18, in the experiment on DLD-1, with M19-MEL, in the experiment with SNB-78 and in the experiment with DMS-114 was > 100 µM (inactive) each time. For the same compound, the GI50 with XF498 is > 100 µM (inactive).

For the compound `Sc1nnc(C(c2ccccc2)c2ccccc2)[nH]1`, the GI50 in the experiment with KM-20L2, with DLD-1, with M19-MEL, with DMS-273, in the experiment on RXF 631 and in the experiment on DMS-114 was > 100 µM (inactive) throughout. Further, the GI50 in the experiment on XF498 is > 100 µM (inactive).

Turning to `O=C1C2C3CCC(C2C(=O)N1CO)C1C2C(=O)N(CO)C(=O)C2C31` (stereo not drawn), the GI50 in the experiment on KM-20L2 is > 52.6 µM (inactive); in the experiment on HOP-18, 13.7 µM (inactive); with DLD-1, 45.4 µM (inactive); in the experiment on M19-MEL it was 1 µM (active); with DMS-273 it was 36.1 µM (inactive); in the experiment on SNB-78 it was > 100 µM (inactive). In addition, the results for the GI50 in the experiment on DMS-114 and with XF498 were 25.6 µM (inactive) and > 100 µM (inactive), respectively.

With `O=C1c2ccccc2-c2c3c(cc4ccnc1c24)OCO3` [LIRIODENINE], the GI50 was 7.14 µM (inactive) and 5.82 µM (inactive) in the experiment with KM-20L2; 24.9 µM (inactive) in the experiment with HOP-18; 4.49 µM (inactive) and 4.05 µM (inactive) with DLD-1; 5.86 µM (inactive) and 3.75 µM (inactive) in the experiment with M19-MEL; 3.44 µM (inactive) and 5.46 µM (inactive) with DMS-273; 5.75 µM (inactive) and 4.69 µM (inactive) in the experiment with XF498.

Consider `Cc1cc(C)nc(NS(=O)(=O)c2ccc(NC(=O)c3cccc4c(Nc5ccc(S(=O)(=O)Nc6nc(C)cc(C)n6)cc5)c5ccc(Cl)cc5nc34)cc2)n1`, for which the GI50 in the experiment with KM-20L2 was 40.5 µM (inactive); with HOP-18 it was > 100 µM (inactive); in the experiment on DLD-1, 33.7 µM (inactive); with M19-MEL, 37.8 µM (inactive); with DMS-273, 77.6 µM (inactive); in the experiment on SNB-78, 39.4 µM (inactive). For the same compound, the GI50 in the experiment with DMS-114 was 25.1 µM (inactive); in the experiment on XF498 it was 23.1 µM (inactive).

`CCC(C)NC1=C(NC(C)=O)C(=O)c2ccccc2C1=O` (stereo not drawn): the GI50 with KM-20L2 was > 75 µM (inactive); with HOP-18, > 75 µM (inactive); in the experiment with DLD-1 it was 27.4 µM (inactive); in the experiment on M19-MEL, 48.3 µM (inactive); with DMS-273, 27.6 µM (inactive); in the experiment on SNB-78, > 75 µM (inactive). The results for the GI50 in the experiment on DMS-114 and with XF498 were 28.4 µM (inactive) and > 75 µM (inactive), respectively.

Turning to `NC(=O)/C=C/c1c[nH]c2nccnc12`, the GI50 is 0.0723 µM (active) with KM-20L2; 0.228 µM (active) with HOP-18; 2.13 µM (inactive) in the experiment on DLD-1; 3.27 µM (inactive) in the experiment with M19-MEL; 3.52 µM (inactive) in the experiment on DMS-273; 2.22 µM (inactive) with DMS-114.

With `CCOC(=O)C1N(S(=O)(=O)c2ccc(C)cc2)CCC12C(c1ccc(OC)cc1)NC1CCCCC12` (stereo not drawn), the GI50 with KM-20L2 was > 100 µM (inactive); in the experiment with DLD-1, > 100 µM (inactive); in the experiment on M19-MEL, > 100 µM (inactive); in the experiment with DMS-273, > 100 µM (inactive); with SNB-78, > 100 µM (inactive); in the experiment with RXF 631, 97.1 µM (inactive). For the same compound, in the experiment on DMS-114, the GI50 was > 100 µM (inactive).

`N=c1nc2n(cc1F)[C@@H]1O[C@H](CO)[C@@H](O)[C@@H]1O2`: the GI50 is 2.99 µM (inactive) in the experiment with KM-20L2; 13.4 µM (inactive) in the experiment on HOP-18; 1.44 µM (inactive) in the experiment on DLD-1; 3.63 µM (inactive) with DMS-273; 62.2 µM (inactive) in the experiment with SNB-78; > 100 µM (inactive) with XF498.

On to `COc1ccc(N2C(=O)C3c4[nH]c5ccccc5c4C4CCCCCCC4C3C2=O)cc1` (stereo not drawn), for which the GI50 with KM-20L2 was 28.8 µM (inactive); with HOP-18, 1.57 µM (inactive); in the experiment on DLD-1, 11.2 µM (inactive); with M19-MEL, 23.3 µM (inactive); in the experiment with DMS-273, 5.35 µM (inactive); with SNB-78 it was 27.8 µM (inactive). In addition, the figures for the GI50 in the experiment with DMS-114 and in the experiment with XF498 were 8.71 µM (inactive) and 10.4 µM (inactive), respectively.

For `Cc1ccc(C(=O)OCC(C)C)cc1/N=N/N(C)C`, the GI50 was 38.7 µM (inactive) in the experiment on KM-20L2; 45.5 µM (inactive) in the experiment on DLD-1; 44 µM (inactive) in the experiment with M19-MEL; 45.5 µM (inactive) in the experiment on DMS-273; 64.9 µM (inactive) with SNB-78.

`CCOC(=O)C(Cc1ccc([N+](=O)[O-])cc1)NC(=O)CC1c2ccccc2-c2ccccc21` (stereo not drawn): the GI50 was > 100 µM (inactive) in the experiment on KM-20L2; > 100 µM (inactive) in the experiment with HOP-18; > 100 µM (inactive) in the experiment with DLD-1; 18.9 µM (inactive) with M19-MEL; 63.5 µM (inactive) with DMS-273; 23.8 µM (inactive) with SNB-78. Further, the GI50 with DMS-114 was 37.6 µM (inactive); in the experiment on XF498, 20.8 µM (inactive).

As to `O=S(=O)(O)c1cc(O)c2c(O)c(/N=N/c3ccc(/C=C/c4ccc(/N=N/c5c(S(=O)(=O)O)cc6cc(S(=O)(=O)O)cc(O)c6c5O)cc4S(=O)(=O)O)c(S(=O)(=O)O)c3)c(S(=O)(=O)O)cc2c1`, the GI50 in the experiment with KM-20L2 was > 100 µM (inactive); in the experiment on HOP-18 it was > 100 µM (inactive); with DLD-1, > 100 µM (inactive); in the experiment on M19-MEL, > 100 µM (inactive); with DMS-273 it was > 100 µM (inactive); in the experiment with DMS-114, 56.6 µM (inactive). For the same compound, the GI50 in the experiment with XF498 was > 100 µM (inactive).

`OC1c2ccccc2C2(O)C1C(c1ccccc1)C(c1ccccc1)C2(O)c1ccccc1` (stereo not drawn): the GI50 with KM-20L2 was 8.83 µM (inactive); in the experiment on HOP-18 it was 14.9 µM (inactive); in the experiment on M19-MEL, 15.1 µM (inactive); in the experiment with DMS-273, 7.48 µM (inactive); with DMS-114 it was 13.6 µM (inactive).
